{
  "source": "patent US11247970B2",
  "about": "“Selective inhibition of gluconeogenic activity” (Dana-Farber Cancer Institute, Inc., priority 2017, dated 2022)",
  "key": {"[1]": {"system": "Pck1 and G6pc gene expression", "assay": "Gluconeogenic gene and protein expression in primary hepatocytes (qPCR, western)", "assay_type": "cell-based, mouse", "protocol": "(§1) For measurement of acetylation, gene expression and glucose production SR-18292 ([…]) was added to cells overnight and fresh compound was added the following day for additional 3 h before collecting the cells (for total of ˜18 h treatment). Where insulin and glucagon stimulation were performed, the medium was changed to starvation medium (DMEM, 0.2% BSA, 2 mM sodium pyruvate, and 1% penicillin/streptomycin) with fresh compound for the last 3 h and cells were stimulated with either 100 nM insulin or 200 nM glucagon for an extra 1.5 h. For glucose measurements following PGC-1α over expression cells were incubated for the last 3 h in glucose-free medium (phenol-red/glucose free DMEM, 0.2% BSA, 2 mM sodium pyruvate and 20 mM sodium lactate or 10 mM glycerol in case glycerol was used as substrate). For glucose measurements following glucagon stimulation cells were incubated for the last 4 h in the same glucose-free medium that also contained glucagon (200 nM). The glucose level in the medium was measured using a glucose assay kit from Eton Bioscience Inc. by adding […] of assay buffer to […] of medium followed by 15 min incubation at 37° C. Absorbance was measured at 490 nm.\nsiRNA oligos against mouse Ppargc1a were purchased from OriGene (SR420231). Hepatocytes were transfected with a 1:1:1:mixture of 3 unique 27mer siRNA duplexes ([…]) using Lipofectamin RNAiMax (Invitrogen) immediately upon seeding with plating medium. The following morning cells were washed with PBS and medium was changed to maintenance medium. In the afternoon, cells were transfected again and compound treatment started.\nTotal RNA was extracted from cells or pulverized liver using TRIzol reagent (Ambion, Life Technologies), followed by cDNA preparation from 2 μg of total RNA with a High-Capacity cDNA Reverse Transcription Kit (Applied Biosystems). cDNA products were quantified by real-time PCR using Power SYBR Green PCR Master Mix (Applied Biosystems) on a CFX384 Real-Time PCR System (Bio-Rad). To calculate IC50 from C-80 dose response, curves were fit to the hill equation in a similar manner used to calculate estimated AC50 from the high-throughput qPCR screen. However, unlike the curves from the qPCR high-throughput screen, values of relative repression were used rather than of delta-Ct."}, "HFD fed mice [2]": {"system": "HFD fed mice", "assay": "Pyruvate tolerance test (PTT)", "assay_type": "in vivo", "conditions": "HFD 17 weeks", "protocol": "All mice were purchased from Jackson laboratories and housed under a 12 h light/12 h dark cycle at 22° C. Before handling, mice were allowed to acclimate for at least 1 week in our animal facility. For in vivo studies with DIO mice, males 6-8 weeks old were fed HFD for the indicated time. For drug administration, SR-18292 was re-suspended in a 10% DMSO/10% Tween80/80% PBS solution at a final concentration of 6-12 mg/ml. Metformin was re-suspended in the same solution at a 20 mg/ml concentration. SR-18292 was injected via I.P. for 3 days between 4-5 pm and food was removed on day 3 at 5 pm. […] Metformin was administered via oral gavage. […] Insulin tolerance test was performed following the same dosing protocol, but mice were fasted for 4 hours after the forth injection before performing the test. Insulin was injected via I.P. (0.5 U/Kg) and blood glucose was measured every 20 minutes. Glycemia was measured by tail bleed using a glucometer (OneTouch). For all experiments, age- and body weight-matched animals were used. For protein, RNA extracts and biochemistry studies, livers were removed following each experiment and snap frozen in liquid nitrogen. For information on number of animals in each experiment please refer to FIGS. 4, 5 and S5 legends. All studies were performed according to protocols approved by Beth Israel Deaconess Medical Center's Animal Care and Use Committee."}, "Lep^ob/ob mice": {"system": "Lep^ob/ob mice", "assay": "Blood glucose in Lep ob/ob mice with hepatic PGC-1α knockdown", "assay_type": "in vivo", "conditions": "shPGC-1α adenovirus", "protocol": "Virus was introduced to mice through the tail vein injection. Virus was thawed before injection and the desired amount of virus was diluted with saline to a final volume of 100 μL per mouse. Each mouse was injected with 6*10^7 pfu/g. SR-18292 treatment started on day 5 post infection.\nIn addition, liver toxicity, as measured by serum levels of alanine transaminase (ALT), aspartate aminotransferase (AST), lactate dehydrogenase (LDH) and bilirubin, was not observed in mice treated with SR-18292 (Table 6). […] To assess the contribution of PGC-1α in mediating the in vivo effects of SR-18292, hepatic PGC-1α in Lep^ob/ob mice was depleted using shRNA and observed a significant reduction in basal blood glucose concentrations compared to control. […] To fully assess the effects of SR-18292 on whole body glucose homeostasis and insulin resistance, a glucose tolerance test (GTT) and insulin tolerance test (ITT) were performed following the same protocol used to determine fasting blood glucose. […] As expected, insulin levels after GTT were lower in the treated group (FIG. 51). […] To test if SR-18292 chronic treatment will cause similar anti-diabetic effects, mice were treated for a period of 14 days."}, "HFD fed mice [3]": {"system": "HFD fed mice", "assay": "Fasting blood glucose in HFD fed mice", "assay_type": "in vivo", "conditions": "45 mg/kg I.P., 3 days and again day 4", "description": "All mice were purchased from Jackson laboratories and housed under a 12 h light/12 h dark cycle at 22° C. Before handling, mice were allowed to acclimate for at least 1 week in our animal facility. For in vivo studies with DIO mice, males 6-8 weeks old were fed HFD for the indicated time. […] Metformin was re-suspended in the same solution at a 20 mg/ml concentration. […] Metformin was administered via oral gavage. […] Glycemia was measured by tail bleed using a glucometer (OneTouch). For all experiments, age- and body weight-matched animals were used.\nTherefore, blood glucose was measured in the fasted state during which the liver plays a major role maintaining glycemia. […] A high fat diet (HFD) fed mice, a dietary model of obesity and T2D, were used."}, "[4]": {"system": "CREB, TORC2, Akt phosphorylation", "assay": "Western blot of glucagon and insulin signaling in hepatocytes", "assay_type": "cell-based, mouse", "protocol": "as §1"}},
  "data": [
    {"compound": "Cc1ccc(CN(CC(O)COc2cccc3[nH]ccc23)C(C)(C)C)cc1", "note": "(centres unmarked) [SR-18292, 1-((1H-indol-4-yl)oxy)-3-(tert-butyl(4-methylbenzyl)amino)propan-2-ol]", "values": [
      {"measurement": "gene expression after short treatment", "setting": "[1]; 3 hr treatment", "result": "no effect"},
      {"measurement": "gluconeogenic gene and protein expression induced by ectopic PGC-1α", "setting": "[1]; Ad-PGC-1α infected hepatocytes", "result": "significantly reduced"},
      {"measurement": "glucagon-stimulated Pck1 and G6pc gene expression", "setting": "[1]; glucagon 200 nM", "result": "significantly reduced"},
      {"measurement": "PEPCK protein levels", "setting": "[1]; hepatocytes infected with Ad-PGC-1α", "result": "reduced"},
      {"measurement": "suppression of Pck1 and G6pc after siRNA knock down of PGC-1α", "setting": "[1]; siRNA against Ppargc1a", "result": "significantly impairs the ability of SR-18292 to suppress Pck1 and G6pc"},
      {"measurement": "defects in glucose production relative to metformin", "setting": "HFD fed mice [2]", "result": "comparable to that mediated by metformin treatment"},
      {"measurement": "glucose levels after pyruvate injection", "setting": "HFD fed mice [2]", "result": "significantly reduced"},
      {"measurement": "SR-18292-mediated reduction in blood glucose with reduced hepatic PGC-1α", "setting": "Lep^ob/ob mice", "result": "blunted SR-18292-mediated reductions in blood glucose concentrations"},
      {"measurement": "fasting blood glucose vs vehicle", "setting": "HFD fed mice [3]", "result": "significantly lower"},
      {"measurement": "glucagon-induced phosphorylation of CREB and dephosphorylation of CRTC2", "setting": "[4]; glucagon 200 nM", "result": "without disrupting"},
      {"measurement": "cell autonomous enhancement of insulin signaling (Akt S473)", "setting": "[4]; insulin 100 nM", "result": "not observed"}
    ]}
  ]
}
